Experimental data reported in patent US7700647B2, “Fluorinated bis (phthalic anhydride) and method for producing the same” (priority 2003, dated 2010).

How the values were obtained:
Assay type in all cases: physicochemical
[1] = Absorbance of acetone solution measured with a spectrophotometer (coloration); conditions: wavelength 360 nm; 0.5 g dissolved in acetone to 10 g total
Procedure: 0.5 g of 4,4′-[(2,3,5,6-tetrafluoro-1,4-phenylene)-bis(oxy)]bis(3,5,6-trifluorophthalic anhydride) obtained in the above-mentioned Preparation Example 4 was dissolved in acetone and adjusted so as to give 10 g of the total amount of the mixture. The absorbance in the visible region of this solution was measured with a spectrophotometer (UV-3100 manufactured by Shimadzu Corporation). The absorbance of the same compound prepared in the above-mentioned Comparative Preparation Example 2 was similarly measured.

[2] = Specific surface area by Brunauer-Emmerit-Teller (BET) method; conditions: Model NOVA 2000
Procedure: Each specific surface area of 4,4′-[(2,3,5,6-tetrafluoro-1,4-phenylene)bis(oxy)]bis(3,5,6-trifluorophthalic anhydride) obtained in the above-mentioned Preparation Example 4 and Comparative Preparation Example 2 was measured.
The specific surface area was measured using a Brunauer-Emmerit-Teller (BET) method (Model NOVA 2000 manufactured by Quantachrome Corporation).

[3] = Time to become a homogeneous solution when stirred with diamine in N,N-dimethylacetamide; conditions: stirred at room temperature
Procedure: Into a 100 milliliter—three necked flask were charged 14.51 g (24.92 mmol) of 4,4′-[(2,3,5,6-tetrafluoro-1,4-phenylene)bis(oxy)]bis(3,5,6-trifluorophthalic anhydride) obtained in Preparation Example 4, 4.48 g (24.92 mmol) of 1,3-diamino-2,4,5,6-tetrafluorobenzene and 31 g of N,N-dimethylacetamide. As this mixture was stirred at room temperature in an atmosphere of nitrogen, it took about 30 minutes before it became a homogeneous solution. By leaving standing further for 4 days, a light-yellow polyamic acid solution having a high viscosity was obtained.
Raw materials were charged into a three necked flask in the same manner as that of the above-mentioned Preparation Example 5 except for using a substance obtained in the above Comparative Preparation Example 2 instead of a substance obtained in the above Preparation Example 4 as the 4,4′-[(2,3,5,6-tetrafluoro-1,4-phenylene)bis(oxy)]bis(3,5,6-trifluorophthalic anhydride). As this mixture was stirred at room temperature as with the above-mentioned Preparation Example 5, it took about 1 hour before it became a homogeneous solution. By leaving standing further for 4 days, a yellow polyamic acid solution was obtained, but its viscosity was low. When its weight-average molecular weight was measured in the same manner as that of the above-mentioned Preparation Example 5, it was 6.04×10^4.

Structure (SMILES) | Molar absorption coefficient [1] | Specific surface area [2] | Time before mixture became a homogeneous solution ([3]; same manner as Preparation Example 5, N,N-dimethylacetamide) | Time before mixture became a homogeneous solution ([3]; 14.51 g with 4.48 g 1,3-diamino-2,4,5,6-tetrafluorobenzene in 31 g N,N-dimethylacetamide, nitrogen)
O=C1OC(=O)c2c(F)c(Oc3c(F)c(F)c(Oc4c(F)c(F)c5c(c4F)C(=O)OC5=O)c(F)c3F)c(F)c(F)c21 [Comparative Preparation Example 2, 4,4′-[(2,3,5,6-tetrafluoro-1,4-phenylene)bis(oxy)]bis(3,5,6-trifluorophthalic anhydride)] | 0.672 L/mol/cm | 2.869 m^2/g | about 1 hour | –
O=C1OC(=O)c2c(F)c(Oc3c(F)c(F)c(Oc4c(F)c(F)c5c(c4F)C(=O)OC5=O)c(F)c3F)c(F)c(F)c21 [Preparation Example 4, 4,4′-[(2,3,5,6-tetrafluoro-1,4-phenylene)bis(oxy)]bis(3,5,6-trifluorophthalic anhydride)] | 0.258 L/mol/cm | 4.403 m^2/g | – | about 30 minutes
